# PubChem BioAssay AID180 (DTP/NCI, 2004)
# Where “and” joins values, the source holds several entries; their conditions need not be identical. Equal entries are not always repeated.
# System: BDF1 mice, Adenocarcinoma 755 s.c., tumor weight T/C
# Experiment: NCI In Vivo Anticancer Drug Screen. Data for tumor model Adenocarcinoma 755 (subcutaneous) in B6D2F1 (BDF1) mice
# Details: endpoint: mean tumor weight, higher = larger tumour
# How it was run: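 In vivo antitumor screen on a transplantable tumor line. Result equals the measure in compound-treated animals divided by the same measure in vehicle controls.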
structure (smiles),measurement,setting,value
C[C@@H]1C[C@H]2[C@@H]3CCC4=CC(=O)C=C[C@]4(C)[C@@]3(F)[C@@H](O)C[C@]2(C)[C@@]1(O)C(=O)CO,T/C,"dose: 7.0 mg/kg/injection, schedule: Q01DX011 (sc), vehicle: steriod suspending solution",19 % of control and 32 % of control and 39 % of control
same,T/C,"dose: 14.0 mg/kg/injection, schedule: Q01DX011 (sc), vehicle: steriod suspending solution",1 % of control and 25 % of control
same,T/C,"dose: 21.0 mg/kg/injection, schedule: Q01DX011 (sc), vehicle: steriod suspending solution",4 % of control
same,T/C,"dose: 28.0 mg/kg/injection, schedule: Q01DX011 (sc), vehicle: steriod suspending solution",10 % of control
C[C@H]1C(=O)O[C@@H]2CCN3CC=C(COC(=O)[C@](C)(O)[C@@]1(C)O)[C@H]23,T/C,"dose: 12.5 mg/kg/injection, schedule: Q#A X022 (ip), vehicle: carboxymethylcellulose (CMC)",70 % of control
same,T/C,"dose: 12.5 mg/kg/injection, schedule: Q#A X022 (oral), vehicle: carboxymethylcellulose (CMC)",65 % of control
same,T/C,"dose: 22.5 mg/kg/injection, schedule: Q01DX011 (ip), vehicle: carboxymethylcellulose (CMC)",45 % of control
same,T/C,"dose: 25.0 mg/kg/injection, schedule: Q01DX011 (ip), vehicle: carboxymethylcellulose (CMC)",74 % of control
same,T/C,"dose: 25.0 mg/kg/injection, schedule: Q#A X022 (ip), vehicle: carboxymethylcellulose (CMC)",69 % of control
same,T/C,"dose: 25.0 mg/kg/injection, schedule: Q#A X022 (oral), vehicle: carboxymethylcellulose (CMC)",44 % of control
same,T/C,"dose: 45.0 mg/kg/injection, schedule: Q01DX011 (ip), vehicle: carboxymethylcellulose (CMC)",34 % of control
same,T/C,"dose: 50.0 mg/kg/injection, schedule: Q01DX011 (ip), vehicle: carboxymethylcellulose (CMC)",61 % of control
same,T/C,"dose: 50.0 mg/kg/injection, schedule: Q01DX011 (oral), vehicle: saline",36 % of control
same,T/C,"dose: 50.0 mg/kg/injection, schedule: Q#A X022 (ip), vehicle: carboxymethylcellulose (CMC)",22 % of control
same,T/C,"dose: 50.0 mg/kg/injection, schedule: Q#A X022 (oral), vehicle: carboxymethylcellulose (CMC)",7 % of control
same,T/C,"dose: 75.0 mg/kg/injection, schedule: Q03DX004 (ip), vehicle: carboxymethylcellulose (CMC)",101 % of control
same,T/C,"dose: 90.0 mg/kg/injection, schedule: Q01DX011 (ip), vehicle: carboxymethylcellulose (CMC)",15 % of control
same,T/C,"dose: 100.0 mg/kg/injection, schedule: Q01DX011 (ip), vehicle: carboxymethylcellulose (CMC)",42 % of control
same,T/C,"dose: 100.0 mg/kg/injection, schedule: Q01DX011 (oral), vehicle: carboxymethylcellulose (CMC)",38 % of control
same,T/C,"dose: 100.0 mg/kg/injection, schedule: Q01DX011 (oral), vehicle: saline",27 % of control
same,T/C,"dose: 100.0 mg/kg/injection, schedule: Q#A X022 (ip), vehicle: carboxymethylcellulose (CMC)",15 % of control
same,T/C,"dose: 100.0 mg/kg/injection, schedule: Q#A X022 (oral), vehicle: carboxymethylcellulose (CMC)",7 % of control
same,T/C,"dose: 150.0 mg/kg/injection, schedule: Q03DX004 (ip), vehicle: carboxymethylcellulose (CMC)",46 % of control
same,T/C,"dose: 180.0 mg/kg/injection, schedule: Q01DX011 (ip), vehicle: carboxymethylcellulose (CMC)",7 % of control
same,T/C,"dose: 180.0 mg/kg/injection, schedule: Q01DX011 (ip), vehicle: methylcellulose (MC)",24 % of control
same,T/C,"dose: 200.0 mg/kg/injection, schedule: Q01DX011 (ip), vehicle: carboxymethylcellulose (CMC)",13 % of control
same,T/C,"dose: 200.0 mg/kg/injection, schedule: Q01DX011 (oral), vehicle: carboxymethylcellulose (CMC)",14 % of control
same,T/C,"dose: 200.0 mg/kg/injection, schedule: Q01DX011 (oral), vehicle: saline",4 % of control
same,T/C,"dose: 300.0 mg/kg/injection, schedule: Q03DX004 (ip), vehicle: carboxymethylcellulose (CMC)",24 % of control
same,T/C,"dose: 400.0 mg/kg/injection, schedule: Q01DX011 (oral), vehicle: carboxymethylcellulose (CMC)",6 % of control
same,T/C,"dose: 400.0 mg/kg/injection, schedule: Q01DX011 (oral), vehicle: saline",5 % of control
same,T/C,"dose: 600.0 mg/kg/injection, schedule: Q03DX004 (ip), vehicle: carboxymethylcellulose (CMC)",16 % of control
CC(=O)NCCSC(=O)C(=O)SCCNC(C)=O,T/C,"dose: 25.0 mg/kg/injection, schedule: Q01DX011 (ip), vehicle: saline",62 % of control
same,T/C,"dose: 50.0 mg/kg/injection, schedule: Q01DX011 (ip), vehicle: saline",65 % of control
same,T/C,"dose: 200.0 mg/kg/injection, schedule: Q01DX011 (ip), vehicle: saline",42 % of control and 63 % of control
c1nc(SC2=NCCN2)c2[nH]cnc2n1,T/C,"dose: 0.22 mg/kg/injection, schedule: Q01DX011 (ip), vehicle: saline",104 % of control
same,T/C,"dose: 0.45 mg/kg/injection, schedule: Q01DX011 (ip), vehicle: saline",72 % of control
same,T/C,"dose: 0.45 mg/kg/injection, schedule: Q01DX011 (oral), vehicle: saline",100 % of control
same,T/C,"dose: 0.65 mg/kg/injection, schedule: Q01DX011 (ip), vehicle: saline",71 % of control
same,T/C,"dose: 0.9 mg/kg/injection, schedule: Q01DX011 (ip), vehicle: saline",61 % of control
same,T/C,"dose: 0.9 mg/kg/injection, schedule: Q01DX011 (oral), vehicle: saline",73 % of control
same,T/C,"dose: 1.3 mg/kg/injection, schedule: Q01DX011 (ip), vehicle: saline",74 % of control
same,T/C,"dose: 1.8 mg/kg/injection, schedule: Q01DX011 (ip), vehicle: saline",15 % of control
same,T/C,"dose: 1.8 mg/kg/injection, schedule: Q01DX011 (oral), vehicle: saline",48 % of control
same,T/C,"dose: 2.6 mg/kg/injection, schedule: Q01DX011 (ip), vehicle: saline",23 % of control
same,T/C,"dose: 2.62 mg/kg/injection, schedule: Q01DX011 (ip), vehicle: saline",4 % of control and 8 % of control
same,T/C,"dose: 3.6 mg/kg/injection, schedule: Q01DX011 (oral), vehicle: saline",21 % of control
same,T/C,"dose: 5.25 mg/kg/injection, schedule: Q01DX011 (ip), vehicle: saline",2 % of control and 3 % of control
same,T/C,"dose: 5.25 mg/kg/injection, schedule: Q01DX011 (oral), vehicle: saline",9 % of control
same,T/C,"dose: 8.0 mg/kg/injection, schedule: Q01DX001 (ip), vehicle: saline",38 % of control
same,T/C,"dose: 10.5 mg/kg/injection, schedule: Q01DX011 (ip), vehicle: saline",1 % of control and 2 % of control
same,T/C,"dose: 10.5 mg/kg/injection, schedule: Q01DX011 (oral), vehicle: saline",2 % of control
same,T/C,"dose: 16.0 mg/kg/injection, schedule: Q01DX001 (ip), vehicle: saline",57 % of control
same,T/C,"dose: 20.0 mg/kg/injection, schedule: Q01DX011 (ip), vehicle: saline",31 % of control
same,T/C,"dose: 21.0 mg/kg/injection, schedule: Q01DX011 (ip), vehicle: saline",2 % of control
same,T/C,"dose: 21.0 mg/kg/injection, schedule: Q01DX011 (oral), vehicle: saline",1 % of control
same,T/C,"dose: 30.0 mg/kg/injection, schedule: Q01DX011 (ip), vehicle: saline",14 % of control
same,T/C,"dose: 31.0 mg/kg/injection, schedule: Q01DX001 (ip), vehicle: saline",29 % of control
same,T/C,"dose: 62.0 mg/kg/injection, schedule: Q01DX001 (ip), vehicle: saline",38 % of control
CC(C)(CBr)C(=O)N1CCN(C(=O)C(C)(C)CBr)CC1,T/C,"dose: 7.0 mg/kg/injection, schedule: Q01DX011 (ip), vehicle: methylcellulose (MC)",80 % of control
same,T/C,"dose: 14.0 mg/kg/injection, schedule: Q01DX011 (ip), vehicle: methylcellulose (MC)",56 % of control
CN(C)N=Nc1ccc(CCCC(=O)NN)cc1,T/C,"dose: 31.0 mg/kg/injection, schedule: Q01DX011 (ip), vehicle: carboxymethylcellulose (CMC)",60 % of control
same,T/C,"dose: 62.0 mg/kg/injection, schedule: Q01DX011 (ip), vehicle: carboxymethylcellulose (CMC)",10 % of control
CC1(C)N=C(N)N=C(N)N1c1cccc(Cl)c1,T/C,"dose: 1.15 mg/kg/injection, schedule: Q01DX011 (ip), vehicle: carboxymethylcellulose (CMC)",89 % of control
same,T/C,"dose: 2.3 mg/kg/injection, schedule: Q01DX011 (ip), vehicle: carboxymethylcellulose (CMC)",72 % of control
same,T/C,"dose: 4.6 mg/kg/injection, schedule: Q01DX011 (ip), vehicle: carboxymethylcellulose (CMC)",121 % of control
same,T/C,"dose: 9.2 mg/kg/injection, schedule: Q01DX011 (ip), vehicle: carboxymethylcellulose (CMC)",88 % of control
CCC(C)Cn1cnc2c(=O)[nH]c(N)nc21 (stereo not drawn),T/C,"dose: 37.5 mg/kg/injection, schedule: Q01DX011 (ip), vehicle: methylcellulose (MC)",75 % of control
same,T/C,"dose: 75.0 mg/kg/injection, schedule: Q01DX011 (ip), vehicle: methylcellulose (MC)",49 % of control
same,T/C,"dose: 150.0 mg/kg/injection, schedule: Q01DX011 (ip), vehicle: methylcellulose (MC)",67 % of control
C=CC1CN2CCC1CC2C(O)c1ccnc2ccc(OC)cc12 (stereo not drawn),T/C,"dose: 28.96 mg/kg/injection, schedule: Q01DX011 (ip), vehicle: carboxymethylcellulose (CMC)",109 % of control
same,T/C,"dose: 57.93 mg/kg/injection, schedule: Q01DX011 (ip), vehicle: carboxymethylcellulose (CMC)",121 % of control
same,T/C,"dose: 92.68 mg/kg/injection, schedule: Q01DX011 (ip), vehicle: carboxymethylcellulose (CMC)",70 % of control
same,T/C,"dose: 115.85 mg/kg/injection, schedule: Q01DX011 (ip), vehicle: carboxymethylcellulose (CMC)",76 % of control
same,T/C,"dose: 125.0 mg/kg/injection, schedule: Q01DX011 (ip), vehicle: methylcellulose (MC)",82 % of control
same,T/C,"dose: 154.46 mg/kg/injection, schedule: Q01DX011 (ip), vehicle: carboxymethylcellulose (CMC)",86 % of control
same,T/C,"dose: 231.7 mg/kg/injection, schedule: Q01DX011 (ip), vehicle: carboxymethylcellulose (CMC)",72 % of control
same,T/C,"dose: 250.0 mg/kg/injection, schedule: Q01DX011 (ip), vehicle: methylcellulose (MC)",91 % of control
